# Test results taken from paper PMC3016878 (Chembiochem : a European journal of chemical biology, 2010).
# Molecular target: AAC(3)-IV; AAC(3) (Escherichia coli, UniProt Q306W4)
# Experiment: UV-vis acetyltransferase assay, Michaelis-Menten
# Type: biochemical
# Settings: co-substrate apramycin
structure (smiles),measurement,value
CC(=O)SCCNC(=O)CCNC(=O)[C@H](O)C(C)(C)COP(=O)(O)OP(=O)(O)OC[C@H]1O[C@@H](n2cnc3c(N)ncnc32)[C@H](O)[C@@H]1OP(=O)(O)O [AcCoA],KM,Michaelis-Menten plot for modification of apramycin by AcCoA and AzAcCoA
